Tests used:
[1] = system: radiation-induced oral mucositis (mucosal ulceration) in the tongue of rats; experiment: Radiation-induced oral mucositis in rat tongue, single dose studies (Example 2); format: in vivo, Sprague-Dawley rats; conditions: single dose irradiation of rat tongue; 0.5 ml per day oral gavage; placebo water
Excerpt: The animals were maintained, and all experimental procedures performed in compliance with the Animal (Scientific Procedures) Act 1986. While under anaesthesia the animal's tongue was slightly extended outside and a region of the underside of the tongue was irradiated in situ with single doses of 2.27 MeV β-rays from a 5 mm or 11 mm diameter ^90Sr/^90Y plaque. The dose-rate of the 5 mm ^90Sr/^90Y plaque was ˜10 Gy/min and that of 11 mm source was ˜3 Gy/min at the surface of the mucus membrane 5 mm source was used for single dose study and 11 mm source was used for fractionated studies. The irradiation was carried out by simply positioning the sealed ^90Sr/^90Y plaque in contact with the surface of the tongue. The tongue was stretched gently and radioactive source was placed with a uniform pressure in all cases in order to avoid any local hypoxia. […]
A total of 144 rats were used for this part of study. […] From the day after irradiation, until any acute radiation-induced oral mucosal lesion had healed, the animals' tongues were assessed daily for the presence of radiation-induced mucositis (mucosal ulceration) under light anaesthesia, maintained with a 1.5% Halothane, oxygen mixture. […] The dose modification factor (DMF), defined as the ratio of the dose of radiation to cause mucositis in ‘active’ agent group to that in ‘placebo’ group, was calculated. […]

[2] = system: animals (rats, cats, dogs, pigs and monkeys); conditions: fed to animals over a period of 60 weeks; cited from earlier work

SMILES | Dose modification factor (DMF), active agent group vs placebo group [1] | Doses that have shown no toxicity [2]
Cc1c(C)c2c(c(C)c1O)CC[C@@](C)(CCC[C@H](C)CCC[C@H](C)CCCC(C)C)O2 [α-tocopherol, 5,7,8-trimethyltocol] | 1.05 | –
COc1cc(/C=C/C(=O)CC(=O)/C=C/c2ccc(O)c(OC)c2)ccc1O [Curcumin, diferuloylmethane] | – | 500-5000 mg/kg body weight
